Assay results from US20060193796A1, “Method for refining ultraviolet absorbent, ultraviolet absorbent and cosmetic material” (priority 2003, published 2006).

Legend:
[1] = Odor evaluation for ultraviolet absorbers after a time has elapsed (storage for 3 weeks); format: physicochemical; settings: 10 ranks: 1, no odor, 10, very intense odor; for Odor evaluation for ultraviolet absorber after a time has elapsed: In the dark: stored in the dark at 50° C. for 3 weeks; for Odor evaluation for ultraviolet absorber after a time has elapsed: In the light: stored in the light at 20° C., 1000 lux for 3 weeks
Procedure: Odor Evaluation for Ultraviolet Absorbers After a Time Has Elapsed 100 ml of each ultraviolet absorber was filled into two different 200-ml sample bottles, and one bottle was stored in the dark (at 50° C.) and the other in the light (at 20° C., 1000 lux) for 3 weeks. The intensity of overall odor and that of irritating odor were evaluated using one of 10 ranks: 1, no odor; . . .; 10, very intense odor and scored.

[2] = Hue evaluation for ultraviolet absorbers, Hazen color (APHA), Lovibond Nessleriser 2150; format: physicochemical
Procedure: Hue Evaluation for Ultraviolet Absorbers
Hazen color (APHA) was measured using Lovibond Nessleriser 2150.

Structure (SMILES) | Odor evaluation for ultraviolet absorber after a time has elapsed: In the dark [1] | Odor evaluation for ultraviolet absorber after a time has elapsed: In the light [1] | Evaluation for ultraviolet absorber: Hue [2] [APHA]
CCCCC(CC)COC(=O)C=Cc1ccc(OC)cc1 (stereo not drawn) [Example 2, 2-ethylhexyl p-methoxycinnamate] | 2 | 1 | 10
CCCCC(CC)COC(=O)C=Cc1ccc(OC)cc1 (stereo not drawn) [Example 1, 2-ethylhexyl p-methoxycinnamate] | 2 | 1 | 10
CCCCC(CC)COC(=O)C=Cc1ccc(OC)cc1 (stereo not drawn) [compound 3, 2-ethylhexyl p-methoxycinnamate] | 4 | 4 | 40
CCCCC(CC)COC(=O)C=Cc1ccc(OC)cc1 (stereo not drawn) [compound 7, 2-ethylhexyl p-methoxycinnamate] | 3 | 2 | 10
CCCCC(CC)COC(=O)C=Cc1ccc(OC)cc1 (stereo not drawn) [compound 8, 2-ethylhexyl p-methoxycinnamate] | 3 | 2 | 20
CCCCC(CC)COC(=O)C=Cc1ccc(OC)cc1 (stereo not drawn) [Example 3, 2-ethylhexyl p-methoxycinnamate] | 2 | 1 | 10
CCCCC(CC)COC(=O)C=Cc1ccc(OC)cc1 (stereo not drawn) [compound 2, 2-ethylhexyl p-methoxycinnamate] | 5 | 4 | 10
CCCCC(CC)COC(=O)C=Cc1ccc(OC)cc1 (stereo not drawn) [compound 1, 2-ethylhexyl p-methoxycinnamate] | 5 | 4 | 40
CCCCC(CC)COC(=O)C=Cc1ccc(OC)cc1 (stereo not drawn) [Example 4, 2-ethylhexyl p-methoxycinnamate] | 2 | 1 | 10
CCCCC(CC)COC(=O)C=Cc1ccc(OC)cc1 (stereo not drawn) [compound 5, 2-ethylhexyl p-methoxycinnamate] | 3 | 3 | 20
CCCCC(CC)COC(=O)C=Cc1ccc(OC)cc1 (stereo not drawn) [compound 4, 2-ethylhexyl p-methoxycinnamate] | 4 | 3 | 10
CCCCC(CC)COC(=O)C=Cc1ccc(OC)cc1 (stereo not drawn) [compound 6, 2-ethylhexyl p-methoxycinnamate] | 3 | 2 | 20
CCCCC(CC)COC(=O)C=Cc1ccc(OC)cc1 (stereo not drawn) [compound 9, 2-ethylhexyl p-methoxycinnamate] | 2 | 3 | 10
